# In patent US10493027B2, “Chemically stable compositions of a pharmaceutical active agent in a multi- chambered delivery system for mucosal delivery” (MUCODEL PHARMA LLC, priority 2014, dated 2019):
# Structures can show the parent of a compound that is named as a salt. Where two headings read alike, the source gives them in different places.
# What was measured:
# [1] = cited from earlier work
# [2] = cited from earlier work; remark: listed apart in the source
# [3] = cited from earlier work; remark: listed apart in the source
# [4] = Nalbuphine bioavailability study (Example 14)
# [5] = cited from earlier work; remark: listed apart in the source
# [6] = orally delivered, mice; cited from earlier work
# [7] = cited from earlier work; remark: listed apart in the source
smiles,measurement,setting,value
O=C1CC[C@@]2(O)[C@H]3Cc4ccc(O)c5c4[C@@]2(CCN3CC2CC2)[C@H]1O5 [Naltrexone],increase of permeation (factor),[1]; pH of NTX increased from 6.8 to 7.5,1.6
same,increase of permeation (factor),[1]; pH of NTX increased from 6.8 to 8.5,4.4
same,permeation enhancement,"[1]; with Brij 58, reconstituted human buccal mucosa",7.7
Oc1ccc2c3c1O[C@H]1[C@@H](O)CC[C@@]4(O)[C@@H](C2)N(CC2CCC2)CC[C@]314 [Nalbuphine],solubility in water,[2]; Example 14 text,about 35 mg/g
same,t1/2,"[3]; i.v., 20 mg",222 min
same,t1/2,"[3]; p.o., 60 mg",279 min
same,tmax,"[3]; p.o., 60 mg",46.6 min
same,peak plasma achieved faster than intraoral administration,[4]; intranasal,~1000%
same,maximum drug plasma concentration higher than conventional oral formulation,"[4]; intranasal, equivalent dose",~500%
C=CCN1CC[C@]23c4c5ccc(O)c4O[C@H]2C(=O)CC[C@@]3(O)[C@H]1C5 [Naloxone],mean absolute bioavailability of oral Naloxone,"[5]; healthy subjects, doses 5 mg to 120 mg",less than or equal to 2%
same,mean absolute bioavailability,"[5]; oral PR tablets, 5 mg dose, based on AUCt",0.9%
same,bioavailability,[6],1%
same,pKa,[7],around 7.9
same,solubility in water,[2]; Example 5,1.4 mg/mL
Oc1ccc2c3c1O[C@H]1[C@@H](O)CC[C@@]4(O)[C@@H](C2)N(CC2CCC2)CC[C@]314 [nalbuphine hydrochloride],bioavailability when delivered orally,[3]; oral,approximately 12%
same,bioavailability,"[4]; human, plasma, other: intranasal, 16.8 mg",> 200%
"C=CCN1CC[C@]23c4c5ccc(O)c4O[C@H]2C(=O)CC[C@@]3(O)[C@H]1C5 [Naloxone HCl, naloxone hydrochloride]",solubility in water,[2]; US EPA EPI Suite reference,73 mg/mL
same,solubility in water,[2]; room temperature,greater than 70 mg/g
